The record followed here is patent publication US7678390B2, “Carbon monoxide as a biomarker and therapeutic agent” (priority 1999, dated 2010).

The subject of assay [1] is rats exposed to hyperoxia (>98% O2). Description: Survival of rats in lethal hyperoxia in the presence of CO. The assay is classed as in vivo, rat. The conditions noted are these: for % Survival 72 h / % Survival 100 h: hyperoxia (>98%). The text has this: Pathogen-free male Sprague-Dawley rats (250-300 g) were purchased from Harlan Sprague-Dawley (Indianapolis, Ind.) and allowed to acclimate upon arrival for 7 days prior to experimentation. Animals were fed rodent chow and water ad libitum. All experimental protocols were approved by the Animal Care and Use Committee.
(§1) Animals were exposed to >98% O2 or 98% O2+CO mixtures at a flow rate of 12 liters/min in a 3.70-cubic-foot glass exposure chamber. Animals were supplied food and water during the exposures. CO at a concentration of 1% (10,000 ppm) in compressed air was mixed with >98% O2 in a stainless steel mixing cylinder prior to entering the exposure chamber. By varying the flow rates of CO into the mixing cylinder, concentrations delivered to the exposure chamber were controlled. Because the flow rate was primarily determined by the O2 flow, only the CO flow was changed to generate the different concentrations delivered to the exposure chamber. A carbon monoxide analyzer (Interscan Corporation, Chatsworth, Calif.) was used to measure CO levels continuously in the chamber. Gas samples were taken by the analyzer through a port in the top of the exposure chamber at a rate of 1 liter/min and analyzed by electrochemical detection with a sensitivity of 10 ppm to 600 ppm. CO levels in the chamber were recorded at hourly intervals and there were no changes in chamber CO concentrations once the chamber had equilibrated. O2 concentrations in the chamber were determined using a gas spectrometer.
We used clinically relevant in vivo models of oxidative stress to test the hypothesis that CO mediates the protective effects of HO-1 against oxidative stress. Hyperoxia when administered to animals produces pathophysiologic changes similar to those seen in human adult respiratory distress syndrome (ARDS) (Lee, et al., Am. J. Resp Cell Mol Biol. 14: 556-568; and Clerch, and Massaro, J. Clin. Invest. 91: 499-1508). […] These rats will uniformly die by 72 h of continuous hyperoxic exposure (Lee, et al. and Clerch, supra). In this study, one group of rats were placed in hyperoxia (>98% oxygen O2) alone while the second group of rats were placed in an identical chamber and exposed to the same levels of hyperoxia in the presence of a low concentration of CO (250 ppm). […] We observed concentration dependent protection against hyperoxia at both 72 and 100 h of hyperoxia exposure (Table 1). (P-value for the association between survival and CO concentration is 0.001 by logistic regression). Carboxyhemoglobin levels, a standard measurement of CO levels in the blood, correlated with increasing concentrations of CO exposure and survival of animals to lethal hyperoxia (Table 1, below).

Assay [2] shares this test system. Type of assay: in vivo, rat.
Text: as §1
Lungs were fixed by perfusion with 10% formalin at 20 cm H2O pressure and embedded in paraffin. Lung sections of […] were mounted onto slides pretreated with 3-aminopropylethoxysilane (Digene Diagnostics, Inc., Beltsville, Md.). Slides were baked for 30 min at 60° C. and washed twice in fresh xylene for 5 min to remove the paraffin. The slides were then rehydrated though a series of graded alcohols and then washed in distilled water for 3 min prior to staining with hematoxylin and eosin.
Animals were anesthesized with sodium pentobarbital 24 h after LPS administration or 56 h of hyperoxia exposure. BAL (35 ml/kg) was performed 4 times with PBS (pH 7.4). Cells were pooled from the lavages and centrifuged at 1200 g for 10 min. The supernatant was discarded and cells were resuspended in PBS. Cell counts were performed using a Neubaur hemocytometer. For differential analysis, samples were cytocentrifuged and stained with Diff-Quik. Measurement of Injury Markers Rats were removed at 56 h of hyperoxia and anesthetized with sodium pentobarbital. The pleural effusion was collected by inserting an 18 gauge needle and 10 cc syringe through the diaphragm and withdrawing all fluid present in the pleural cavity. BAL was performed as described above, and the first lavage was centrifuged at 1200 g for 10 min and the supernatant was assayed for the protein albumin as determined by Bromcresol Green Kit (BCG) from Sigma (St. Louis, Mo.). Arterial Blood Oxygen Tension and Carboxyhemoglobin Determination Indwelling catheters were surgically implanted into the carotid arteries of rats anesthetized with 3% v/v isoflurane. Animals were secured in jackets and tethers to allow movement about the cage and access to food and water which were placed inside the exposure chambers. Polyethelene tubing, connected to the catheter and threaded out through an airtight fitting in the lid of the chamber, was used for continuous heparin infusion throughout the exposure (20 U/ml at 0.1 ml/h) to maintain patency of the vessel. At each time point, 1 cc of blood was drawn into a heparinized syringe, sealed and placed on ice until analyzed for oxygen tension. Arterial oxygen tension and carboxyhemoglobin were determined using a BG3 Instrumentation Laboratory Blood Gas Analyzer and Co-oximeter (Boston, Mass.). […]

The mark [3] stands for this setting: hyperoxia in the presence of CO.

Regarding `[C-]#[O+]` [CO, carbon monoxide], the survival in hyperoxia entry in assay [1] (hyperoxia (>98% O2), CO 250 ppm, 72 h) is listed as “all animals were alive at the 72 h time point”. The “% Survival 72 h” value in assay [1] (CO 50 ppm, 72 h) came out at 33%; in assay [1] (CO 100 ppm, 72 h), 50%; in assay [1] (CO 250 ppm, 72 h), 100%; in assay [1] (CO 500 ppm, 72 h), 100%. For the same molecule, the “% Survival 100 h” value in assay [1] (CO 50 ppm) was 0%; in assay [1] (CO 100 ppm), 50%; in assay [1] (CO 250 ppm), 80%; in assay [1] (CO 500 ppm), 80%. Further, the “neutrophil influx into the airways (BAL)” value in assay [2] (56 h hyperoxia in the presence of CO (250 ppm)) is “significant reductions”. In addition, the lung apoptotic index in assay [2] (56 h hyperoxia in the presence of CO (250 ppm), TUNEL/DAPI) is 1.8%±0.12. Also, the “volume of pleural effusion” value in assay [2] (56 h hyperoxia in the presence of a low concentration of CO) is “marked inhibition”. The lung histology result in assay [2] (setting [3]) is “completely normal macroscopically and microscopically”. Further, the “protein accumulation into the airways (bronchoalveolar lavage)” value in assay [2] (setting [3]) is “significantly lower levels”.
